This test deals with T1, ferroportin (Fpn) (Mus musculus, UniProt Q9JHI9).
T1 construct: endogenous in cells; host or cells: J774 mouse macrophage cell line, induced with Fe(III)NTA
T1 sequence (Q9JHI9 1-570): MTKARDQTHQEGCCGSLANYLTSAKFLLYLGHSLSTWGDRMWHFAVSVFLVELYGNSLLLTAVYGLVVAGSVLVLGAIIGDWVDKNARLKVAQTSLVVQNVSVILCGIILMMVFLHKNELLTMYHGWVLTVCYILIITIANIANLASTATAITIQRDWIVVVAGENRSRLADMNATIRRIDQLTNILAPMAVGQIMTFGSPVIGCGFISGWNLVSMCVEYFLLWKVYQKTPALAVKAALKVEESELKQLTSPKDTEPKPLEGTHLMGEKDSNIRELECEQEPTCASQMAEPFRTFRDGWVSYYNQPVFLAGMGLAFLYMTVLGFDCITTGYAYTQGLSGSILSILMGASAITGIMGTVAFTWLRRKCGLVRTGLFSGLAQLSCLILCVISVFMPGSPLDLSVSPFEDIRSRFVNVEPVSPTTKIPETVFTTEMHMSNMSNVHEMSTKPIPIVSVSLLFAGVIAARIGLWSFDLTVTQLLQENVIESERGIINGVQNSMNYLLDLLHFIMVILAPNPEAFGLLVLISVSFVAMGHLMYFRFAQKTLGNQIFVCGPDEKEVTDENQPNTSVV
In words: Hepcidin Internalization Assay (J774). It is filed as cell-based. Particulars: Average (AVE) IC50 of multiple measurements; inhibition of TMR-hepcidin (25 nM) internalization into J774 cells. An excerpt:
This cellular assay allows quantification of the binding of hepcidin to ferroportin (Fpn) through microscopic detection of internalization of a fluorescently labeled hepcidin into J774 cells. […] Binding of hepcidin to Fpn triggers internalization and degradation of both hepcidin and Fpn. […] Therefore, microscopic detection of cell-associated TMR fluorescence is a measure of hepcidin binding to Fpn and internalization of hepcidin and Fpn. If TMR-hepcidin is prevented from binding to Fpn, cellular TMR fluorescence remains low (Durrenberger et al, 2013). The effect of small molecular weight Fpn inhibitor compounds in this assay was evaluated in vitro as described below. […] After removal of the paraformaldehyde solution, cells were washed 3 times with PBS leaving 100 μl per well and the plates were sealed with foil plate seal. TMR (530-550 nm excitation/575-625 nm emission/400 ms exposure time) and Hoechst 33342 (360-370 nm excitation/420-460 nm emission /10 ms exposure time) fluorescence images were acquired using a […] imager (Olympus) with a 20× high NA objective. […] The acquired image data was analysed with the […] analysis software. […] IC50 values were calculated with the Sum(Mean) raw data using “log(inhibitor) vs. response” curve fitting of Prism 5 software (GraphPad Software Inc., version 5.02). For each data set the fit of the “log(inhibitor) vs. response (three parameters)” model was compared to the fit of the “log(inhibitor) vs. response - Variable slope (four parameters)” model and the IC50 data of the preferred model was used.
Consider `O=C(NCc1ncccc1F)c1coc(CCNCCc2nc3ccccc3n2CCc2ccccc2)n1` [Example 23, N-((3-fluoropyridin-2-yl)methyl)-2-(2-((2-(1-phenethyl-1 H-benzo[d]imidazol-2-yl)ethyl)amino)ethyl)oxazole-4-carboxamide], for which the IC50 (as a rule, the point on the concentration scale where inhibition reaches its midpoint) stood at 1.9 nM.

`O=C(NCc1ncccc1F)c1coc(CCNCCc2nc3ccccc3n2-c2cccc(Cl)c2)n1` [Example 64, 2-(2-((2-(1-(3-chlorophenyl)-1 H-benzo[d]imidazol-2-yl)ethyl)amino)ethyl)-N-((3-fluoropyridin-2-yl)methyl)oxazole-4-carboxamide] returned an IC50 of 1.3 nM.

`CCCCn1c(CCNCCc2nc(C(=O)NCc3ncccc3F)co2)nc2cc3c(cc21)OCCO3` [Example 37, 2-(2-((2-(1-butyl-6,7-dihydro-1H-[1,4]dioxino[2′,3′:4,5]benzo[1,2-d]imidazol-2-yl)ethyl)amino)ethyl)-N-((3-fluoropyridin-2-yl)methyl)oxazole-4-carboxamide] displayed an IC50 of 0.9 nM.

Turning to `O=C(NCc1ncccc1F)c1coc(CCNCCc2nc3cc4c(cc3n2CCN2CCCCC2)OCCO4)n1` [Example 74, N-((3-fluoropyridin-2-yl)methyl)-2-(2-((2-(1-(2-(piperidin-1-yl)ethyl)-6,7-dihydro-1H-[1,4]dioxino[2′,3′:4,5]benzo[1,2-d]imidazol-2-yl)ethyl)amino)ethyl)oxazole-4-carboxamide], the midpoint of inhibition, the IC50, lay at 4.9 nM.

`Cn1c(CCNCCc2nc(C(=O)NCc3ncccc3F)co2)nc2ccccc21` [Example 5, N-((3-fluoropyridin-2-yl)methyl)-2-(2-((2-(1-methyl-1 H-benzo[d]imidazol-2-yl)ethyl)amino)ethyl)oxazole-4-carboxamide] came in with an IC50 of 7 nM.

As to `CNC(=O)CCn1c(CCNCCc2nc(C(=O)NCc3ncccc3F)co2)nc2ccccc21` [Example 25, N-((3-fluoropyridin-2-yl)methyl)-2-(2-((2-(1-(3-(methylamino)-3-oxopropyl)-1 H-benzo[d]imidazol-2-yl)ethyl)amino)ethyl)oxazole-4-carboxamide], the IC50 stood at 7 nM.

In turn, `CCn1c(CCNCCc2nc(C(=O)NCc3ncccc3F)co2)nc2ccccc21` [Example 6, 2-(2-((2-(1-ethyl-1 H-benzo[d]imidazol-2-yl)ethyl)amino)ethyl)-N-((3-fluoropyridin-2-yl)methyl)oxazole-4-carboxamide] displayed an IC50 of 3.6 nM.

As to `CN(C)CCn1c(CCNCCc2nc(C(=O)NCc3ncccc3F)co2)nc2ccccc21` [Example 56, 2-(2-((2-(1-(2-(dimethylamino)ethyl)-1 H-benzo[d]imidazol-2-yl)ethyl)amino)ethyl)-N-((3-fluoropyridin-2-yl)methyl)oxazole-4-carboxamide], the IC50 was determined as 9 nM.

Consider `COc1cccc(CCn2c(CCNCCc3nc(C(=O)NCc4ncccc4F)co3)nc3ccccc32)c1` [Example 45, N-((3-fluoropyridin-2-yl)methyl)-2-(2-((2-(1-(3-methoxyphenethyl)-1 H-benzo[d]imidazol-2-yl)ethyl)amino)ethyl)oxazole-4-carboxamide], for which inhibition was half-maximal at 0.8 nM (IC50).

For `COCCn1c(CCNCCc2nc(C(=O)NCc3ncccc3OC)co2)nc2cc3c(cc21)OCCO3` [Example 67, 2-(2-((2-(1-(2-methoxyethyl)-6,7-dihydro-1H-[1,4]dioxino[2′,3′:4,5]benzo[1,2-d]imidazol-2-yl)ethyl)amino)ethyl)-N-((3-methoxypyridin-2-yl)methyl)oxazole-4-carboxamide], the IC50 turned out to be 4.3 nM.

With `COc1cccnc1CNC(=O)c1coc(CCNCCc2nc3cc4c(cc3n2CCOC2CCCCC2)OCCO4)n1` [Example 91, 2-(2-((2-(1-(2-(cyclohexyloxy)ethyl)-6,7-dihydro-1H-[1,4]dioxino[2′,3′:4,5]benzo[1,2-d]imidazol-2-yl)ethyl)amino)ethyl)-N-((3-methoxypyridin-2-yl)methyl)oxazole-4-carboxamide], the IC50 stood at 2 nM.

Consider `COCCn1c(CCNCCc2nc(C(=O)NCc3ncccc3F)co2)nc2cc(C#Cc3ccccn3)ccc21` [Example 86, N-((3-fluoropyridin-2-yl)methyl)-2-(2-((2-(1-(2-methoxyethyl)-5-(pyridin-2-ylethynyl)-1 H-benzo[d]imidazol-2-yl)ethyl)amino)ethyl)oxazole-4-carboxamide], for which half-maximal inhibition (IC50) was put at 4.1 nM.

For `COc1cccc(-n2c(CCNCCc3nc(C(=O)NCc4ncccc4F)co3)nc3cc4c(cc32)OCCO4)c1` [Example 92, N-((3-fluoropyridin-2-yl)methyl)-2-(2-((2-(1-(3-methoxyphenyl)-6,7-dihydro-1 H-[1,4]dioxino[2′,3′:4,5]benzo[1,2-d]imidazol-2-yl)ethyl)amino)ethyl)oxazole-4-carboxamide], the IC50 stood at 2 nM.

For `COc1cccnc1CNC(=O)c1coc(CCNCCc2nc3cc4c(cc3n2CCN(C)C)OCCO4)n1` [Example 76, 2-(2-((2-(1-(2-(dimethylamino)ethyl)-6,7-dihydro-1 H-[1,4]dioxino[2′,3′:4,5]benzo[1,2-d]imidazol-2-yl)ethyl)amino)ethyl)-N-((3-methoxypyridin-2-yl)methyl)oxazole-4-carboxamide], half-maximal inhibition (IC50) required 13 nM.

Molecule `O=C(NCc1ncccc1F)c1coc(CCNCCc2nc3cc(C#Cc4ccccn4)ccc3n2-c2ccccc2)n1` [Example 85, N-((3-fluoropyridin-2-yl)methyl)-2-(2-((2-(1-phenyl-5-(pyridin-2-ylethynyl)-1H-benzo[d]imidazol-2-yl)ethyl)amino)ethyl)oxazole-4-carboxamide] returned an IC50 of 7.8 nM.

The molecule `COc1cccnc1CNC(=O)c1coc(CCNCCc2nc3cc4c(cc3n2CC(F)F)OCCO4)n1` [Example 68, 2-(2-((2-(1-(2,2-difluoroethyl)-6,7-dihydro-1 H-[1,4]dioxino[2′,3′:4,5]benzo[1,2-d]imidazol-2-yl)ethyl)amino)ethyl)-N-((3-methoxypyridin-2-yl)methyl)oxazole-4-carboxamide] returned an IC50 of 7 nM.

`O=C(NCc1ncccc1F)c1coc(CCNCCc2nc3ccccc3n2Cc2ccncn2)n1` [Example 62, N-((3-fluoropyridin-2-yl)methyl)-2-(2-((2-(1-(pyrimidin-4-ylmethyl)-1 H-benzo[d]imidazol-2-yl)ethyl)amino)ethyl)oxazole-4-carboxamide] yielded an IC50 of 8.5 nM.

In turn, `CCCCn1c(CCNCCc2nc(C(=O)NCc3ncccc3F)co2)nc2ccc(-c3ccccc3OC)cc21` [Example 40, 2-(2-((2-(1-butyl-6-(2-methoxyphenyl)-1 H-benzo[d]imidazol-2-yl)ethyl)amino)ethyl)-N-((3-fluoropyridin-2-yl)methyl)oxazole-4-carboxamide] gave an IC50 of 1.8 nM.

As for `CCCCn1c(CCNCCc2nc(C(=O)NCc3ncccc3Cl)co2)nc2ccccc21` [Example 9, 2-(2-((2-(1-butyl-1 H-benzo[d]imidazol-2-yl)ethyl)amino)ethyl)-N-((3-chloropyridin-2-yl)methyl)oxazole-4-carboxamide], the IC50 was determined as 1 nM.

`CC(C)Cn1c(CCNCCc2nc(C(=O)NCc3ncccc3F)co2)nc2ccccc21` [Example 8, N-((3-fluoropyridin-2-yl)methyl)-2-(2-((2-(1-isobutyl-1 H-benzo[d]imidazol-2-yl)ethyl)amino)ethyl)oxazole-4-carboxamide] gave an IC50 of 1.2 nM.

`CCCCn1c(CC(C)(C)NCCc2nc(C(=O)NCc3ncccc3F)co2)nc2ccccc21` [Example 52, 2-(2-((1-(1-butyl-1 H-benzo[d]imidazol-2-yl)-2-methylpropan-2-yl)amino)ethyl)-N-((3-fluoropyridin-Z-yl)methyl)oxazole-4-carboxamide] had an IC50 of 625 nM.

`CCCCn1c(C2CCN(CCc3nc(C(=O)NCc4ncccc4F)co3)CC2)nc2ccccc21` [Example 49, 2-(2-(4-(1-butyl-1 H-benzo[d]imidazol-2-yl)piperidin-1-yl)ethyl)-N-((3-fluoropyridin-2-yl)methyl)oxazole-4-carboxamide] yielded an IC50 of 3300 nM.

Molecule `COc1ccc(-n2c(CCNCCc3nc(C(=O)NCc4ncccc4F)co3)nc3cc(OC)c(OC)cc32)cc1OC` [Example 90, 2-(2-((2-(1-(3,4-dimethoxyphenyl)-5,6-dimethoxy-1 H-benzo[d]imidazol-2-yl)ethyl)amino)ethyl)-N-((3-fluoropyridin-2-yl)methyl)oxazole-4-carboxamide] registered an IC50 of 39 nM.

Values taken from patent US20240343722A1 (VIFOR (INTERNATIONAL) AG, priority 2021, published 2024).
